Laboratory results taken from article PMC12217463, “Functional and structural analyses of amino acid sequence variation in PDC β-lactamase reveal different mechanistic pathways toward cefiderocol resistance in Pseudomonas aeruginosa” (Antimicrobial Agents and Chemotherapy, 2025).
≈ marks a conversion by molar mass, not a printed value.

What was measured:
[1] = test system: PAO ΔpiuC producing PDC E219K; assay: Cefiderocol MIC, iron uptake-deficient host; assay type: cell-based; conditions: Pseudomonas aeruginosa
Description: (§1) We took advantage of a previously constructed and characterized laboratory collection of recombinant P. aeruginosa PAO1 isolates expressing different blaPDC variants, but specifically enriched for this work with additional variants, following the previously described methodology ([17]). […] The final collection comprised 40 recombinant isolates (20 in PAO1 and 20 in PAO ΔpiuC) producing the wild-type PDC-1 variant from PAO1 and 19 derivatives carrying specific amino acid substitutions previously associated with the development of resistance to ceftazidime/avibactam, ceftolozane/tazobactam, or cefiderocol: T70I, F121L, P153L, G156D, A200T, G202S, ΔG202-E219, G214R, P215L, P215S, ΔP215-G222, D217N, E219K, E219G, E219D, S226ins, L293P, F121L + E219K, and F121L + G222S.
(§2) The MICs of ceftazidime, ceftazidime/avibactam, ceftolozane/tazobactam, cefepime, and cefiderocol were determined in triplicate, for all isolates, by reference broth microdilution assays. Avibactam and tazobactam were fixed at 4 mg/L. All assays were performed using cation-adjusted Mueller-Hinton broth (CAMHB), except for cefiderocol, which was determined in all cases using iron-depleted CAMHB, prepared according to CLSI M100 guidelines ([40]). EUCAST v.15.0 clinical breakpoints and guidelines (http://www.eucast.org/clinical_breakpoints/) were used for reference purposes. Reference strains Escherichia coli ATCC 25922, Klebsiella pneumoniae ATCC 700603, and P. aeruginosa ATCC 27853 were used as controls.

[2] = test system: PAO ΔpiuC producing PDC F121L + E219K; assay: Cefiderocol MIC, iron uptake-deficient host; assay type: cell-based; conditions: Pseudomonas aeruginosa
Description: as §1, §2

[3] = test system: PAO ΔpiuC; assay: Cefiderocol MIC, iron uptake-deficient host; assay type: cell-based; conditions: Pseudomonas aeruginosa
Description: as §1, §2

[4] = test system: PAO ΔpiuC producing PDC ∆G202-E219; assay: Cefiderocol MIC, iron uptake-deficient host; assay type: cell-based; conditions: Pseudomonas aeruginosa
Description: as §1, §2

[5] = test system: PAO ΔpiuC producing PDC L293P; assay: Cefiderocol MIC, iron uptake-deficient host; assay type: cell-based; conditions: Pseudomonas aeruginosa
Description: as §1, §2

[6] = test system: PAO ΔpiuC producing PDC G202S; assay: Cefiderocol MIC, iron uptake-deficient host; assay type: cell-based; conditions: Pseudomonas aeruginosa
Description: as §1, §2

[7] = test system: PAO ΔpiuC producing PDC G156D; assay: Cefiderocol MIC, iron uptake-deficient host; assay type: cell-based; conditions: Pseudomonas aeruginosa
Description: as §1, §2

[8] = test system: PAO ΔpiuC producing PDC F121L + G220S; assay: Cefiderocol MIC, iron uptake-deficient host; assay type: cell-based; conditions: Pseudomonas aeruginosa
Description: as §1, §2

[9] = test system: PAO ΔpiuC producing PDC P153L; assay: Cefiderocol MIC, iron uptake-deficient host; assay type: cell-based; conditions: Pseudomonas aeruginosa
Description: as §1, §2

[10] = test system: PAO ΔpiuC producing PDC S226ins; assay: Cefiderocol MIC, iron uptake-deficient host; assay type: cell-based; conditions: Pseudomonas aeruginosa
Description: as §1, §2

[11] = test system: PAO ΔpiuC producing PDC T70I; assay: Cefiderocol MIC, iron uptake-deficient host; assay type: cell-based; conditions: Pseudomonas aeruginosa
Description: as §1, §2

[12] = test system: PAO ΔpiuC producing PDC A200T; assay: Cefiderocol MIC, iron uptake-deficient host; assay type: cell-based; conditions: Pseudomonas aeruginosa
Description: as §1, §2

[13] = test system: PAO ΔpiuC producing PDC P215S; assay: Cefiderocol MIC, iron uptake-deficient host; assay type: cell-based; conditions: Pseudomonas aeruginosa
Description: as §1, §2

[14] = test system: PAO ΔpiuC producing PDC E219D; assay: Cefiderocol MIC, iron uptake-deficient host; assay type: cell-based; conditions: Pseudomonas aeruginosa
Description: as §1, §2

[15] = test system: PAO ΔpiuC producing PDC F121L; assay: Cefiderocol MIC, iron uptake-deficient host; assay type: cell-based; conditions: Pseudomonas aeruginosa
Description: as §1, §2

[16] = test system: PAO ΔpiuC producing PDC-1 (WT); assay: Cefiderocol MIC, iron uptake-deficient host; assay type: cell-based; conditions: Pseudomonas aeruginosa
Description: as §1, §2

[17] = test system: PAO ΔpiuC producing PDC G214R; assay: Cefiderocol MIC, iron uptake-deficient host; assay type: cell-based; conditions: Pseudomonas aeruginosa
Description: as §1, §2

[18] = test system: PAO ΔpiuC producing PDC ∆P215-G222; assay: Cefiderocol MIC, iron uptake-deficient host; assay type: cell-based; conditions: Pseudomonas aeruginosa
Description: as §1, §2

[19] = test system: PAO ΔpiuC producing PDC E219G; assay: Cefiderocol MIC, iron uptake-deficient host; assay type: cell-based; conditions: Pseudomonas aeruginosa
Description: as §1, §2

[20] = test system: PAO ΔpiuC producing PDC P215L; assay: Cefiderocol MIC, iron uptake-deficient host; assay type: cell-based; conditions: Pseudomonas aeruginosa
Description: as §1, §2

[21] = test system: PAO ΔpiuC producing PDC D217N; assay: Cefiderocol MIC, iron uptake-deficient host; assay type: cell-based; conditions: Pseudomonas aeruginosa
Description: as §1, §2

[22] = test system: PAO1 + blaPDC F121L + G220S; assay: MIC, broth microdilution; assay type: cell-based; conditions: Pseudomonas aeruginosa
[23] = test system: PAO ΔpiuC producing the ∆P215-G222, E219K, F121L + E219K, and L293P variants; assay: MIC, group of variants in PAO ΔpiuC; assay type: cell-based; conditions: Pseudomonas aeruginosa
Description: as §1
as §2, with “Reference strains Escherichia coli ATCC 25922, Klebsiella pneumoniae ATCC 700603, and P. aeruginosa ATCC 27853 were used as controls.” left out

[24] = test system: PAO1 producing the Ω-loop variants ∆P215-G222, E219K, and F121L + E219K; assay: MIC, group of Ω-loop variants in PAO1; assay type: cell-based; conditions: Pseudomonas aeruginosa; range over PAO1 producing ∆P215-G222, E219K and F121L + E219K
Description: as §1
as §2, with “Reference strains Escherichia coli ATCC 25922, Klebsiella pneumoniae ATCC 700603, and P. aeruginosa ATCC 27853 were used as controls.” left out

[25] = molecular target: PDC E219K (Pseudomonas aeruginosa, UniProt P24735, E247K); assay: Steady-state kinetics of purified β-lactamase; conditions: for kcat: direct hydrolysis at substrate concentration at least three times the Km; for Ratio for PDC E219K/PDC-1: ratio of kcat/Km (fold change in catalytic efficiency)
[26] = molecular target: PDC-1 (WT) (Pseudomonas aeruginosa, UniProt P24735); assay: Steady-state kinetics of purified β-lactamase
[27] = test system: E. cloacae AmpC variant with a ∆A294-P295 deletion; design: method as in PMID 32284381; conditions: relative to the parent enzyme; cited from earlier work
[28] = test system: P. aeruginosa isolates overproducing PDC variants; conditions: clinical strains, values generally remain below; cited from earlier work
[29] = molecular target: PDC L293P (Pseudomonas aeruginosa, UniProt P24735, L320P); assay: Steady-state kinetics of purified β-lactamase; conditions: for kcat: direct hydrolysis at substrate concentration at least three times the Km
[30] = test system: E219K or L293P substitutions combined with inactivating mutations affecting iron uptake (∆piuC); assay: MIC, E219K or L293P with impaired iron uptake; assay type: cell-based; conditions: Pseudomonas aeruginosa
Description: as §1
as §2, with “Reference strains Escherichia coli ATCC 25922, Klebsiella pneumoniae ATCC 700603, and P. aeruginosa ATCC 27853 were used as controls.” left out

`CC(C)(O/N=C(\C(=O)N[C@@H]1C(=O)N2C(C(=O)[O-])=C(C[N+]3(CCNC(=O)c4ccc(O)c(O)c4Cl)CCCC3)CS[C@H]12)c1csc(N)n1)C(=O)O` [FDC, cefiderocol] showed an MIC [1] of 32 µg/mL (≈ 42.5 µM), an MIC [2] of 64 µg/mL (≈ 85.1 µM) and an MIC [3] of 2 µg/mL (≈ 2.66 µM). The MIC [4] was 8 µg/mL (≈ 10.6 µM), the MIC [5] was 32 µg/mL (≈ 42.5 µM) and the MIC [6] was 8 µg/mL (≈ 10.6 µM). It also gave an MIC [7] of 8 µg/mL (≈ 10.6 µM), an MIC [8] of 8 µg/mL (≈ 10.6 µM) and an MIC [9] of 8 µg/mL (≈ 10.6 µM). For the same molecule, the MIC [10] was 8 µg/mL (≈ 10.6 µM), the MIC [11] was 8 µg/mL (≈ 10.6 µM) and the MIC [12] was 8 µg/mL (≈ 10.6 µM). For the same molecule, the MIC [13] was 8 µg/mL (≈ 10.6 µM), the MIC [14] was 8 µg/mL (≈ 10.6 µM) and the MIC [15] was 8 µg/mL (≈ 10.6 µM). It also gave an MIC [16] of 4 µg/mL (≈ 5.32 µM), an MIC [17] of 16 µg/mL (≈ 21.3 µM) and an MIC [18] of 32 µg/mL (≈ 42.5 µM). The MIC [19] was 8 µg/mL (≈ 10.6 µM), the MIC [20] was 8 µg/mL (≈ 10.6 µM) and the MIC [21] was 8 µg/mL (≈ 10.6 µM). It also gave an MIC [22] of 0.25 µg/mL (≈ 0.332 µM), an MIC [23] of 32 to 64 µg/mL (≈ 42.5 to 85.1 µM) and an MIC [24] of 2 to 4 µg/mL. For the same molecule, the “increase in kcat values” ([25]; PDC E219K relative to PDC-1) was “≈ 125 fold”, the Km ([25]; PDC E219K, antibiotics: determined as Ki app with nitrocefin as reporter substrate, 10 mM PBS, pH 7.4, room temperature) was 466 ± 120 µM and the kcat ([25]; PDC E219K, 10 mM PBS, pH 7.4, room temperature, listed as Cefiderocol) was 0.45 ± 0.03 s⁻¹. For the same molecule, the kcat ([25]; PDC E219K, 10 mM PBS, pH 7.4, room temperature, listed as cefiderocol) was 0.45 s⁻¹, the “Ratio for PDC E219K/PDC-1” value ([25]; listed as Cefiderocol) was 24.00 and the “Ratio for PDC E219K/PDC-1” value ([25]; listed as cefiderocol) was “≈ 24”. For the same molecule, the kcat ([26]; PDC-1 (WT), direct hydrolysis at substrate concentration at least three times the Km, 10 mM PBS, pH 7.4, room temperature) was 0.0036 s⁻¹, the Ratio ([26]; kcat/Km relative to PDC-1 (reference = 1)) was 1 and the “increase in catalytic efficiency” value [27] was “≈ 19 fold”. The MIC [28] was “below 2 mg/L”, the “improvement in substrate binding affinity (Km decrease)” value ([29]; PDC L293P relative to PDC-1) was “≈ 32 fold” and the Km ([29]; PDC L293P, antibiotics: determined as Ki app with nitrocefin as reporter substrate, 10 mM PBS, pH 7.4, room temperature) was 2.69 ± 0.1 µM. The kcat ([29]; PDC L293P, 10 mM PBS, pH 7.4, room temperature, listed as Cefiderocol) was 0.0036 ± 0.0001 s⁻¹, the kcat ([29]; PDC L293P, 10 mM PBS, pH 7.4, room temperature, listed as cefiderocol) was 0.0036 s⁻¹ and the “Ratio for PDC L293P/PDC-1” value ([29]; ratio of kcat/Km (fold change in catalytic efficiency)) was 33.75. The MIC [30] was ≥ 32 µg/mL.
